How the values were obtained:
[1] = system: New Zealand white rabbits; assay: Intraocular pressure (IOP) after topical application to the rabbit eye; type: in vivo; conditions: for IOP: mean ± S.E.
[2] = system: New Zealand white rabbits; assay: Pupil diameter / mydriasis after topical application to the rabbit eye; type: in vivo; conditions: for Pupil Diameter: mean ± S.E.
Procedure: These diastereomers were administered topically as either 1% or 2% solutions in buffered saline. Pupillary diameter and IOP were measured in all animals over a six hour time period during the day to minimize diurnal variations in IOP and pupil diameter.
The experiments were performed on adult male New Zealand white rabbits weighing 3.0–6.0 kg. All rabbits were caged individually and maintained on a 12 hr/12 hr light/dark schedule with free access to food and water. All animal procedures were in conformity with the ARVO Resolution on the Use and Care of Animals in Research. All treated rabbits had served as controls by having received a saline treatment on a different day.
Only one eye received drug treatment. The contralateral eye served as a control. Saline (or PBS) and drug treated rabbits were treated and observed simultaneously. A single dose was given at time zero and IOP and pupil diameter measured at −1.0, −0.5, 0.5, 1, 3 and 5 hrs post-treatment.
Pupil diameter was measured visually at the point of the greatest horizontal diameter with a transparent millimeter ruler. All measurements were made under the identical ambient lighting conditions.
Mean and Standard Error values were used to construct time-response and dose-response curves for the treated and contralateral eye of research rabbits. The data were analyzed statistically by an analysis of variance and a Bonferoni's test for significance. P<0.05 was the accepted level of significance.

[3] = system: Swiss-Webster mice; assay: Locomotor stimulant and depressant effects in mice; conditions: i.p.
[4] = system: Swiss-Webster mice; assay: H1 receptor antagonist (triprolidine) interaction study, locomotor activity in mice; conditions: mice pretreated with triprolidine 20 min before the test compound
[5] = 1% topical, drug treated eye (T), 0.5 hr
[6] = 1% topical, drug treated eye (T), 1 hr
[7] = 1% topical, drug treated eye (T), 3 hr
[8] = 1% topical, drug treated eye (T), 5 hr
[9] = 1% topical, drug treated eye (T), −0.5 hr (pre-treatment)
[10] = 1% topical, drug treated eye (T), −1 hr (pre-treatment)
[11] = 1% topical, untreated contralateral eye (U), 0.5 hr
[12] = 1% topical, untreated contralateral eye (U), 1 hr
[13] = 1% topical, untreated contralateral eye (U), 3 hr
[14] = 1% topical, untreated contralateral eye (U), 5 hr
[15] = 1% topical, untreated contralateral eye (U), −0.5 hr (pre-treatment)
[16] = 1% topical, untreated contralateral eye (U), −1 hr (pre-treatment)
[17] = 2% topical, drug treated eye (T), 0.5 hr
[18] = 2% topical, drug treated eye (T), 1 hr
[19] = 2% topical, drug treated eye (T), 3 hr
[20] = 2% topical, drug treated eye (T), 5 hr
[21] = 2% topical, drug treated eye (T), −0.5 hr (pre-treatment)
[22] = 2% topical, drug treated eye (T), −1 hr (pre-treatment)
[23] = 2% topical, untreated contralateral eye (U), 0.5 hr
[24] = 2% topical, untreated contralateral eye (U), 1 hr
[25] = 2% topical, untreated contralateral eye (U), 3 hr
[26] = 2% topical, untreated contralateral eye (U), 5 hr
[27] = 2% topical, untreated contralateral eye (U), −0.5 hr (pre-treatment)
[28] = 2% topical, untreated contralateral eye (U), −1 hr (pre-treatment)
[29] = — denotes absence of significant effect

Substance: (−)-norpseudoephedrine
- effect on IOP (result in words) ([1]; 1% or 2% topical, rabbit): accompanying increase in IOP
- IOP [1, 5]: 17 ± 1.0 mmHg
- IOP [1, 6]: 17 ± 1.5 mmHg
- IOP [1, 7]: 21 ± 1.6 mmHg
- IOP [1, 8]: 18 ± 1.0 mmHg
- IOP [1, 9]: 18 ± 1.6 mmHg
- IOP [1, 10]: 17 ± 1.0 mmHg
- IOP [1, 11]: 21 ± 1.0 mmHg
- IOP [1, 12]: 18 ± 1.6 mmHg
- IOP [1, 13]: 20 ± 1.9 mmHg
- IOP [1, 14]: 23 ± 0.9 mmHg
- IOP [1, 15]: 20 ± 1.7 mmHg
- IOP [1, 16]: 17 ± 1.5 mmHg
- IOP [1, 17]: 15 ± 0.5 mmHg
- IOP [1, 18]: 18 ± 0.7 mmHg
- IOP [1, 19]: 18 ± 1.1 mmHg
- IOP [1, 20]: 18 ± 1.4 mmHg
- IOP [1, 21]: 15 ± 0.9 mmHg
- IOP [1, 22]: 16 ± 1.9 mmHg
- IOP [1, 23]: 16 ± 1.2 mmHg
- IOP [1, 24]: 19 ± 1.2 mmHg
- IOP [1, 25]: 22 ± 1.5 mmHg
- IOP [1, 26]: 21 ± 1.1 mmHg
- IOP [1, 27]: 17 ± 0.7 mmHg
- IOP [1, 28]: 16 ± 1.0 mmHg
- mydriasis / pupil diameter (result in words) ([2]; 1% or 2% topical, rabbit): significant mydriasis
- Mydriatic Responses, TREATED EYE ([2]; 1% topical): + (+ = 0–2 mm change)
- Mydriatic Responses, UNTREATED EYE ([2]; 1% topical): + (+ = 0–2 mm change)
- Pupil Diameter [2, 5]: 6 ± 0.2 mm
- Pupil Diameter [2, 6]: 6 ± 0.2 mm
- Pupil Diameter [2, 7]: 6 ± 0.2 mm
- Pupil Diameter [2, 8]: 6 ± 0.2 mm
- Pupil Diameter [2, 9]: 5 ± 0.2 mm
- Pupil Diameter [2, 10]: 5 ± 0.2 mm
- Pupil Diameter [2, 11]: 6 ± 0.2 mm
- Pupil Diameter [2, 12]: 6 ± 0.2 mm
- Pupil Diameter [2, 13]: 6 ± 0.2 mm
- Pupil Diameter [2, 14]: 6 ± 0.2 mm
- Pupil Diameter [2, 15]: 5 ± 0.2 mm
- Pupil Diameter [2, 16]: 5 ± 0.2 mm
- Mydriatic Responses, TREATED EYE ([2]; 2% topical): ++ (++ = 2–4 mm change)
- Mydriatic Responses, UNTREATED EYE ([2]; 2% topical): ++ (++ = 2–4 mm change)
- Pupil Diameter [2, 17]: 9 ± 0.4 mm
- Pupil Diameter [2, 18]: 9 ± 0.4 mm
- Pupil Diameter [2, 19]: 9 ± 0.4 mm
- Pupil Diameter [2, 20]: 9 ± 0.4 mm
- Pupil Diameter [2, 21]: 6 ± 0.4 mm
- Pupil Diameter [2, 22]: 6 ± 0.4 mm
- Pupil Diameter [2, 23]: 9 ± 0.4 mm
- Pupil Diameter [2, 24]: 9 ± 0.4 mm
- Pupil Diameter [2, 25]: 9 ± 0.4 mm
- Pupil Diameter [2, 26]: 9 ± 0.4 mm
- Pupil Diameter [2, 27]: 6 ± 0.4 mm
- Pupil Diameter [2, 28]: 6 ± 0.4 mm
- Depression Time: 30-min period following injection in which the maximal depression occurred [3]: 10 to 40 min
- Stimulation Time: 30-min period following injection in which the maximal stimulant effect occurred [3]: 40 to 70 min
- locomotor depressant effects, time course (result in words) [3]: locomotor depression at an earlier time (10–40 minutes following injection) and with a lower dose range
- locomotor stimulant effects, time course (result in words) [3]: Dose-dependent increases in locomotor activity of slower onset and longer duration
- Depression Potency: dose resulting in ½ the maximal depressant effect (ID50) [3, 29]: 3.9 mg/kg
- Stimulation Potency: dose resulting in ½ the maximal stimulant effect (ID50) [3, 29]: 51.1 mg/kg
- effect of triprolidine pretreatment on stimulant or depressant effects [4]: Significant effects for pretreatment with triprolidine

— US7232837B2, “Stereoisomers with high affinity for adrenergic receptors” (McNeil-PPC, Inc., priority 1999, dated 2007)
